Measured values: PMC8945814, “The Pyrazolo[3,4-d]Pyrimidine Derivative Si306 Encapsulated into Anti-GD2-Immunoliposomes as Therapeutic Treatment of Neuroblastoma” (Biomedicines, 2022)

Columns and labels:
HTLA-230 = assay: MTT cytotoxicity assay; type: cell-based; settings: Homo sapiens, 24 h exposure, 96 h total, ± S.D.
Procedure: (§1) Cytotoxicity experiments were performed to evaluate the effectiveness of Si306, either free (dissolved in DMSO) or encapsulated into untargeted and GD2-targeted liposomes. Briefly, IMR-32, HTLA-230 and SH-SY5Y cells were seeded in 96-well plates (8 × 10^3 cells/well). Human fibroblasts were used as GD2-negative healthy control cells (5 × 10^3 cells/well). The day after seeding, cells were incubated with increasing concentration of Si306 (0.1, 1.0, 10.0 and, 100.0 μM) either free or liposomes-encapsulated, for 24 h at 37 °C. Cells were then washed twice with PBS before replacing them with fresh complete medium and incubating for an additional 72 h (total incubation time equal to 96 h). At the end of the incubation, the MTT (Sigma) assay was performed. The tetrazolium dye was added, then plates were incubated for 3–4 h at 37 °C; formazan crystals were then dissolved in acid isopropanol, and then the optical density of the stained solution was quantified by the use of a Multiskan™ FC Microplate Photometer (Thermo Fisher Scientific Italia, Monza, Italy) at the dual wavelengths of 570 and 650 nm.

IMR-32 = assay: MTT cytotoxicity assay; type: cell-based; settings: Homo sapiens, 24 h exposure, 96 h total, ± S.D.
Procedure: as §1

SH-SY5Y = assay: MTT cytotoxicity assay; type: cell-based; settings: Homo sapiens, 24 h exposure, 96 h total, ± S.D.
Procedure: as §1

c-Src tyrosine kinase = settings: cited from earlier work
[1] = cited from earlier work
non-tumoral cells = settings: cited from earlier work
[2] = test system: subcutaneous NB animal model; settings: oral administration; cited from earlier work
[3] = parameters: method as in PMID 31248184; settings: 25 mg/kg, free compound in vivo; cited from earlier work

SMILES: ClC(Cn1ncc2c(Nc3cccc(Br)c3)nc(SCCN3CCOCC3)nc21)c1ccccc1 (centres unmarked) [Si306]
- IC50 (HTLA-230): 2.9 ± 0.3 µM
- IC50 (IMR-32): 5.9 ± 1.4 µM
- IC50 (SH-SY5Y): 19.6 ± 0.7 µM
- Ki (c-Src tyrosine kinase): 0.13 µM
- water solubility [1]: low water solubility
- activity in non-tumoral cells (non-tumoral cells): negligible activity
- tumor growth [2]: delay of tumor growth
- signs of toxicity [3]: without signs of toxicity
